Where “and” joins values, the source holds several entries; their conditions need not be identical. Equal entries are not always repeated. Where two headings read alike, the source gives them in different places.
How the values were obtained:
[1] = test system: S. aureus clinical isolates (MRSA and MSSA); assay: Minimum bactericidal concentration (MBC), Example 4; format: cell-based, Staphylococcus aureus; details: for MBC: Staphylococcus aureus
Text: The MBC was defined as the lowest drug concentration at which 99.95% of the original inoculum was eliminated.

VRE isolates = assay: MBC (CLSI methodology), Example 7; format: cell-based, Enterococcus spp.; design: key: M = many bacteria growing on the plate (too many to count)
[2] = test system: RNA synthesis in S. aureus ATCC 29213; assay: Macromolecular synthesis assay: RNA synthesis ([3H] uridine); format: cell-based, Staphylococcus aureus; details: 0.25 to 8 fold the MIC; rifampicin positive control
Experimental: Cells were grown at 35° C. overnight on Trypticase Soy agar. A colony from the plate was used to inoculate 10 ml of Mueller Hinton broth II (MHBII), and the culture was grown to early exponential growth phase (OD600==0.2 to 0.3) while incubating in a shaker at 35° C. and 200 rpm.
When cells reached early exponential phase, 100 μL of culture was added to triplicate wells containing various concentrations of test compound or control antibiotics (5 μL) at 20× the final concentration in 100% DMSO. A 5% DMSO treated culture served as the “no drug” control for all experiments. Cells were added in MHBII at 105% to account for the volume of drug added to each reaction or in M9 minimal medium for protein synthesis reactions. Following 15 min incubation at room temperature, either [^3H] thymidine (DNA synthesis), [^3H] uridine (RNA synthesis) or [^3H] leucine (protein synthesis) was added at 0.5-1.0 μCi per reaction, depending on the experiment. Reactions were allowed to proceed at room temperature for 15-30 min and then stopped by adding 12 μL of cold 5% trichloroacetic acid (TCA) or 5% TCA/2% casamino acids (protein synthesis only). […] After washing three times with 5 ml of cold 5% TCA, the filters were rinsed two times with 5 mL 100% ethanol, allowed to dry, and then counted using a Beckman LS3801 liquid scintillation counter.

N=C(N/N=C/c1ccc(Cl)cc1)N/N=C/c1ccc(Cl)cc1 [NCL812, 1,3-bis[(E)-(4-chlorophenyl)methyleneamino]guanidine]
very similar to the DNA synthesis study: inhibition of RNA synthesis [2]
M: NCL812 MBC: number of bacteria growing after 24 hours per ml of sample (VRE isolates; VRE 12c, NCL812 16 μg/ml) | NCL812 MBC: number of bacteria growing after 24 hours per ml of sample (VRE isolates; VRE 12c, NCL812 32 μg/ml) | NCL812 MBC: number of bacteria growing after 24 hours per ml of sample (VRE isolates; VRE 12c, NCL812 64 μg/ml) | NCL812 MBC: number of bacteria growing after 24 hours per ml of sample (VRE isolates; VRE 12c, NCL812 […]) | NCL812 MBC: number of bacteria growing after 24 hours per ml of sample (VRE isolates; VRE 14t, NCL812 […]) | NCL812 MBC: number of bacteria growing after 24 hours per ml of sample (VRE isolates; VRE 16c(dc), NCL812 16 μg/ml) | NCL812 MBC: number of bacteria growing after 24 hours per ml of sample (VRE isolates; VRE 16c(dc), NCL812 32 μg/ml) | NCL812 MBC: number of bacteria growing after 24 hours per ml of sample (VRE isolates; VRE 16c(dc), NCL812 64 μg/ml) | NCL812 MBC: number of bacteria growing after 24 hours per ml of sample (VRE isolates; VRE 16c(dc), NCL812 […]) | NCL812 MBC: number of bacteria growing after 24 hours per ml of sample (VRE isolates; VRE 16c, NCL812 16 μg/ml) | NCL812 MBC: number of bacteria growing after 24 hours per ml of sample (VRE isolates; VRE 16c, NCL812 32 μg/ml) | NCL812 MBC: number of bacteria growing after 24 hours per ml of sample (VRE isolates; VRE 16c, NCL812 64 μg/ml) | NCL812 MBC: number of bacteria growing after 24 hours per ml of sample (VRE isolates; VRE 16c, NCL812 […]) | NCL812 MBC: number of bacteria growing after 24 hours per ml of sample (VRE isolates; VRE 19t, NCL812 […]) | NCL812 MBC: number of bacteria growing after 24 hours per ml of sample (VRE isolates; VRE 23c, NCL812 64 μg/ml) | NCL812 MBC: number of bacteria growing after 24 hours per ml of sample (VRE isolates; VRE 23c, NCL812 […]) | NCL812 MBC: number of bacteria growing after 24 hours per ml of sample (VRE isolates; VRE 25c, NCL812 8 μg/ml) | NCL812 MBC: number of bacteria growing after 24 hours per ml of sample (VRE isolates; VRE 25c, NCL812 16 μg/ml) | NCL812 MBC: number of bacteria growing after 24 hours per ml of sample (VRE isolates; VRE 25c, NCL812 32 μg/ml) | NCL812 MBC: number of bacteria growing after 24 hours per ml of sample (VRE isolates; VRE 25c, NCL812 64 μg/ml) | NCL812 MBC: number of bacteria growing after 24 hours per ml of sample (VRE isolates; VRE 25c, NCL812 […]) | NCL812 MBC: number of bacteria growing after 24 hours per ml of sample (VRE isolates; VRE 26c(dc), NCL812 16 μg/ml) | NCL812 MBC: number of bacteria growing after 24 hours per ml of sample (VRE isolates; VRE 26c(dc), NCL812 32 μg/ml) | NCL812 MBC: number of bacteria growing after 24 hours per ml of sample (VRE isolates; VRE 26c(dc), NCL812 64 μg/ml) | NCL812 MBC: number of bacteria growing after 24 hours per ml of sample (VRE isolates; VRE 26c(dc), NCL812 […]) | NCL812 MBC: number of bacteria growing after 24 hours per ml of sample (VRE isolates; VRE 37c, NCL812 64 μg/ml) | NCL812 MBC: number of bacteria growing after 24 hours per ml of sample (VRE isolates; VRE 37c, NCL812 […])
4000 CFU/ml and 3500 CFU/ml: NCL812 MBC: number of bacteria growing after 24 hours per ml of sample (VRE isolates; VRE 26c(dc), NCL812 8 μg/ml)
820 CFU/ml and 790 CFU/ml: NCL812 MBC: number of bacteria growing after 24 hours per ml of sample (VRE isolates; VRE 16c, NCL812 4 μg/ml)
0 CFU/ml: NCL812 MBC: number of bacteria growing after 24 hours per ml of sample (VRE isolates; VRE 12c, NCL812 2 μg/ml) | NCL812 MBC: number of bacteria growing after 24 hours per ml of sample (VRE isolates; VRE 14t, NCL812 4 μg/ml) | NCL812 MBC: number of bacteria growing after 24 hours per ml of sample (VRE isolates; VRE 19t, NCL812 4 μg/ml) | NCL812 MBC: number of bacteria growing after 24 hours per ml of sample (VRE isolates; VRE 19t, NCL812 8 μg/ml) | NCL812 MBC: number of bacteria growing after 24 hours per ml of sample (VRE isolates; VRE 23c, NCL812 2 μg/ml) | NCL812 MBC: number of bacteria growing after 24 hours per ml of sample (VRE isolates; VRE 35t, NCL812 2 μg/ml) | NCL812 MBC: number of bacteria growing after 24 hours per ml of sample (VRE isolates; VRE 35t, NCL812 4 μg/ml) | NCL812 MBC: number of bacteria growing after 24 hours per ml of sample (VRE isolates; VRE 35t, NCL812 8 μg/ml)
8 µg/mL: MBC ([1]; HA-MRSA (n = 10), read-out: MBC50) | MBC ([1]; HA-MRSA (n = 10), read-out: MBC90) | MBC ([1]; Methicillin-susceptible staphylococci (n = 10), read-out: MBC90) | MBC ([1]; Total bacterial isolates (n = 30), read-out: MBC90)
980 CFU/ml and 890 CFU/ml: NCL812 MBC: number of bacteria growing after 24 hours per ml of sample (VRE isolates; VRE 16c, NCL812 8 μg/ml)
2 to 8 µg/mL: MBCrange ([1]; Methicillin-susceptible staphylococci (n = 10)) | MBCrange ([1]; Total bacterial isolates (n = 30))
4 to 8 µg/mL: MBCrange ([1]; HA-MRSA (n = 10))
93.33%: S. aureus isolates with MBC equivalent to the MIC ([1]; 30 isolates)
4 µg/mL: MBC ([1]; CA-MRSA (n = 10), read-out: MBC50) | MBC ([1]; CA-MRSA (n = 10), read-out: MBC90) | MBC ([1]; Methicillin-susceptible staphylococci (n = 10), read-out: MBC50) | MBC ([1]; Total bacterial isolates (n = 30), read-out: MBC50)
2 to 4 µg/mL: MBCrange ([1]; CA-MRSA (n = 10))
100 CFU/ml and 50 CFU/ml: NCL812 MBC: number of bacteria growing after 24 hours per ml of sample (VRE isolates; VRE 37c, NCL812 4 μg/ml)
